Tests used:
Type in all cases: cell-based, human
[1] = tested on: H1975 (EGFR L858R/T790M double mutation); assay: Cell antiproliferative assay (CTG, 72 h), H1975; conditions: Homo sapiens
Experimental: (§1) Test Example 1 Cell Antiproliferative Assay
(§2) H1975: with EGFR: L858R/T790M double mutation; PC-9 with EGFR exon 19 deletion, HCC827 with exon 19 deletion mutation. CellCounting-Lite2.0, Trypsin EDTA, 37° C. CO2 incubator, cell counter, EnVision Serial No.1050454. II. Experimental preparation:
(§3) • (A) Trypsin EDTA was used to digest log-phase cells, medium was added to terminate the reaction, and a cell suspension was made by blowing and mixing with a pipette. • (B) Cell concentration was determined using Vi-cell, and a suspension of 15,000-25,000 cells per milliliter was made depending on the purpose of the experiment and the characteristics of the cells. • (C) After the cell suspension was prepared, it was gently mixed and 100 microliters per well was added so that the density of cells to be tested was 1500-2500 per well.
(§4) • (A) About 2 mg of compound was weighed, and the volume of DMSO required was calculated according to the formula: compound mass (mg)*compound purity (%)/compound molecular weight*1000 • (B) The inoculated cell culture plates were incubated in an incubator and the compounds with concentration gradient were added after about 24 hours. • (C)10 Mm of compound stock solution was diluted to […] with medium, and 50 Mm of compound solution was added sequentially to the second column of the deep-well plate, and […] of medium containing 0.5% DMSO was added to the third to eleventh columns. • (D) Gradient dilution: 125 μl of solution was pipetted from the second column and added to the third column, after mixing; another 125 μl of solution was pipetted from the third column and added to the fourth column, and the operation was repeated until the tenth column. • (E)25 μl of compound was pipetted from the deep-well plate into a 96-well culture plate using a multichannel pipette, and each compound was repeated three times on the 96-well plate. A maximum concentration of 10,000 nm with concentration gradient of 1:4 was eventually formed on the 96-well plate.
(§5) • (A)96-well plates were incubated in an incubator for 72 h. The effect of the compounds was observed under an inverted microscope. • (B)25 μl of CTG solution was added to each well, the plate was put on shaker for 10 minutes and the […] of each well was read.
(§6) The cell viability rate (% Cell Viability) was calculated using the following formula: • % Cell Viability=100%×(Lum_Sample-Lum_LC)/(Lum_HC-Lum_LC) • Lum_HC: Cell reading of 0.1% DMSO control • Lum_Sample: Cell reading with compound added • Lum_LC: Reading of Blank media • IC50 values were obtained by curve fitting with GraphPad Prism 8 software.

[2] = tested on: PC-9 (EGFR exon 19 deletion); assay: Cell antiproliferative assay (CTG, 72 h), PC-9; conditions: Homo sapiens, Table 2, PC-9 cells
Experimental: as §1, §2, §3, §4, §5, §6

[3] = tested on: HCC827 (exon 19 deletion mutation); assay: Cell antiproliferative assay (CTG, 72 h), HCC827; conditions: Homo sapiens, Table 2, HCC827 cells
Experimental: as §1, §2, §3, §4, §5, §6

[4] = NCI-H1975, 72 h, Table 2, H1975 cells

Row | SMILES | IC50 [1, 4] [nM] | IC50 ([2]; PC-9, 72 h) [nM] | IC50 ([3]; HCC827, 72 h) [nM] | IC50 ([1]; NCI-H1975, Table 2, H1975 cells) [nM] | IC50 [2] [nM] | IC50 [3] [nM]
1 | COc1cc(N2CCN(C(=O)CN3CCC(c4ccc(NC5CCC(=O)NC5=O)cc4)CC3)C(C)C2)ccc1Nc1ncc(Cl)c(Nc2ccccc2)n1 (stereo not drawn) [Compound T-124] | 100 to 1000 | ≥ 1000 | ≥ 1000 | – | – | –
2 | COc1cc(N2CCN(C(=O)CN3CCC(c4ccc(NC5CCC(=O)NC5=O)cc4)CC3)CC2)ccc1Nc1ncc(Cl)c(Nc2cc(F)ccc2F)n1 (stereo not drawn) [Compound T-132] | 100 to 1000 | ≥ 1000 | 100 to 1000 | – | – | –
3 | COc1cc(N2CCN(C(=O)CN3CCC(c4ccc(NC5CCC(=O)NC5=O)cc4)CC3)CC2)ccc1Nc1ncc(Cl)c(Nc2cccc(C#N)c2)n1 (stereo not drawn) [Compound T-134] | 10 to 100 | ≥ 1000 | ≥ 1000 | – | – | –
4 | COc1cc(N2CCN(C(=O)CN3CCC(c4ccc(NC5CCC(=O)NC5=O)cc4)CC3)CC2)ccc1Nc1ncc(C(F)(F)F)c(-c2cn(C)c3ccccc23)n1 (stereo not drawn) [Compound T-135] | 100 to 1000 | ≥ 1000 | 100 to 1000 | – | – | –
5 | COc1cc(N2CCN(C(=O)CN3CCC(c4ccc(NC5CCC(=O)NC5=O)cc4)CC3)CC2)ccc1Nc1ncc(Cl)c(Nc2ccccc2C#N)n1 (stereo not drawn) [Compound T-139] | 100 to 1000 | ≥ 1000 | 100 to 1000 | – | – | –
6 | O=C1CCC(Nc2ccc(C3CCN(CC(=O)N4CCN(c5ccc(-c6cc(F)c7c(c6)C(=O)N(C(C(=O)Nc6nccs6)c6ccccc6F)C7)cc5)CC4)CC3)cc2)C(=O)N1 (stereo not drawn) [Compound T-140] | 10 to 100 | 100 to 1000 | 100 to 1000 | – | – | –
7 | COc1cc(N2CCN(C(=O)CN3CCC(c4ccc(NC5CCC(=O)NC5=O)cc4)CC3)CC2)ccc1Nc1ncc(Cl)c(Nc2ccccc2OC(=O)N(C)C)n1 (stereo not drawn) [Compound T-152] | – | – | – | 100 to 1000 | ≥ 1000 | ≥ 1000
8 | COc1cc(N2CCC[C@H](NC(=O)CN3CCC(c4ccc(NC5CCC(=O)NC5=O)cc4)CC3)C2)ccc1Nc1ncc(Cl)c(Nc2ccccc2C(C)=O)n1 (stereo partly drawn) [Compound T-166] | 100 to 1000 | ≥ 1000 | ≥ 1000 | – | – | –
9 | COc1cc(N2CCC[C@H](N(C)CN3CCC(c4ccc(NC5CCC(=O)NC5=O)cc4)CC3)C2)ccc1Nc1ncc(Cl)c(Nc2ccccc2C(C)=O)n1 (stereo partly drawn) [Compound T-167] | 100 to 1000 | ≥ 1000 | ≥ 1000 | – | – | –
10 | COc1cc(N2CC(N(C)C(=O)CN3CCC(c4ccc(NC5CCC(=O)NC5=O)cc4)CC3)C2)ccc1Nc1ncc(Cl)c(Nc2ccccc2C(C)=O)n1 (stereo not drawn) [Compound T-170] | 100 to 1000 | ≥ 1000 | ≥ 1000 | – | – | –
11 | COc1cc(N2CC[C@@H](N(C)C(=O)CN3CCC(c4ccc(NC5CCC(=O)NC5=O)cc4)CC3)C2)ccc1Nc1ncc(Cl)c(Nc2ccccc2C(C)=O)n1 (stereo partly drawn) [Compound T-171] | 10 to 100 | ≥ 1000 | 100 to 1000 | – | – | –
12 | COc1cc(N2CC[C@@H](NC(=O)CN3CCC(c4ccc(NC5CCC(=O)NC5=O)cc4)CC3)C2)ccc1Nc1ncc(Cl)c(Nc2ccccc2C(C)=O)n1 (stereo partly drawn) [Compound T-173] | 100 to 1000 | ≥ 1000 | 100 to 1000 | – | – | –
13 | COc1cc(N2CC[C@H](NC(=O)CN3CCC(c4ccc(NC5CCC(=O)NC5=O)cc4)CC3)C2)ccc1Nc1ncc(Cl)c(Nc2ccccc2C(C)=O)n1 (stereo partly drawn) [Compound T-174] | 100 to 1000 | ≥ 1000 | ≥ 1000 | – | – | –
14 | CC(=O)c1ccccc1Nc1nc(Nc2ccc(N3CCN(C(=O)CN4CCC(c5ccc(NC6CCC(=O)NC6=O)cc5)CC4)CC3)cc2OC(C)C)ncc1Cl (stereo not drawn) [Compound T-179] | 100 to 1000 | ≥ 1000 | ≥ 1000 | – | – | –
15 | C=CC(=O)Nc1cc(Nc2ncc(C(F)(F)F)c(Nc3ccccc3)n2)c(OC)cc1N(C)CCN(C)C(=O)CN1CCC(c2ccc(NC3CCC(=O)NC3=O)cc2)CC1 (stereo not drawn) [Compound T-180] | 100 to 1000 | ≥ 1000 | ≥ 1000 | – | – | –
16 | COc1cc(N2CCN(C(=O)CN3CCC(c4cccc(NC5CCC(=O)NC5=O)c4)CC3)CC2)ccc1Nc1ncc(Cl)c(Nc2ccccc2C(C)=O)n1 (stereo not drawn) [Compound T-181] | 100 to 1000 | 100 to 1000 | ≥ 1000 | – | – | –
17 | COc1cc(N2CC3CN(C(=O)CN4CCC(c5ccc(NC6CCC(=O)NC6=O)cc5)CC4)CC3C2)ccc1Nc1ncc(Cl)c(Nc2ccccc2C(C)=O)n1 (stereo not drawn) [Compound T-188] | 10 to 100 | 100 to 1000 | 100 to 1000 | – | – | –
18 | COc1cc(N2C[C@H]3CN(C(=O)CN4CCN(c5ccc(NC6CCC(=O)NC6=O)cc5)CC4)C[C@H]3C2)ccc1Nc1ncc(Cl)c(Nc2ccccc2C(C)=O)n1 (stereo partly drawn) [Compound T-189] | 10 to 100 | 100 to 1000 | 100 to 1000 | – | – | –
19 | COc1cc(N2CCN(C(=O)CN3CCC(c4ccccc4NC4CCC(=O)NC4=O)CC3)CC2)ccc1Nc1ncc(Cl)c(Nc2ccccc2C(C)=O)n1 (stereo not drawn) [Compound T-193] | 100 to 1000 | 100 to 1000 | 100 to 1000 | – | – | –
20 | COc1cc(N2CCN(C(=O)CN3CCC(c4ccc(NC5CCC(=O)NC5=O)cc4)CC3)CC2)ccc1Nc1ncc(Cl)c(Nc2ccccc2NC(C)=O)n1 (stereo not drawn) [Compound T-195] | 10 to 100 | 100 to 1000 | 100 to 1000 | – | – | –
21 | COc1cc(N2CCN(C(=O)CN3CCC(c4ccc(NC5CCC(=O)NC5=O)cc4)CC3)CC2)ccc1Nc1ncc(Cl)c(Nc2ccccc2C(C)(C)O)n1 (stereo not drawn) [Compound T-196] | 10 to 100 | 100 to 1000 | 100 to 1000 | – | – | –
22 | COc1cc(N2CCN(C(=O)CN3CCC(c4ccc(NC5CCC(=O)NC5=O)cc4)CC3)CC2)ccc1Nc1ncc(Cl)c(Nc2ccc(F)cc2C(C)(C)O)n1 (stereo not drawn) [Compound T-199] | 10 to 100 | 100 to 1000 | 100 to 1000 | – | – | –
23 | COc1cc(N2CCN(C(=O)CN3CCC(c4ccc(NC5CCC(=O)NC5=O)cc4)CC3)CC2)ccc1Nc1ncc(Cl)c(Nc2ccccc2OC)n1 (stereo not drawn) [Compound T-200] | 10 to 100 | 100 to 1000 | 100 to 1000 | – | – | –
24 | COc1cc(N2CCN(CCC3CCN(c4ccc5c(c4)C(=O)N(C4CCC(=O)NC4=O)C5=O)CC3)CC2)ccc1Nc1ncc(Cl)c(Nc2ccccc2C(C)=O)n1 (stereo not drawn) [Compound T-212] | 100 to 1000 | ≥ 1000 | 100 to 1000 | – | – | –
25 | COc1cc(OC2CCN(C(=O)CN3CCC(c4ccc(NC5CCC(=O)NC5=O)cc4)CC3)CC2)ccc1Nc1ncc(Cl)c(Nc2ccccc2C(C)=O)n1 (stereo not drawn) [Compound T-214] | 100 to 1000 | ≥ 1000 | 100 to 1000 | – | – | –
26 | COc1cc(N2CCN(C(=O)CN3CCC(c4ccc(NC5CCC(=O)NC5=O)cc4)CC3)CC2)ccc1Nc1ncc(Cl)c(Nc2ccccc2NS(C)(=O)=O)n1 (stereo not drawn) [Compound T-218] | 10 to 100 | 100 to 1000 | 10 to 100 | – | – | –

Source: patent US20250129086A1, “COMPOUND FOR DEGRADING EGFR PROTEIN AND USE THEREOF” (TYK MEDICINES, INC., priority 2021, published 2025)
